# Test results from US9464042B2, “Biguanide derivative, preparation method thereof, and pharmaceutical composition containing same as an active ingredient” (IMMUNOMET THERAPEUTICS INC., priority 2010, dated 2016).
# Assays:
# HCT116 cells = assay: Inhibition of cancer cell proliferation (MTT, GIC50); format: cell-based; conditions: Homo sapiens, HCT-116, 48 h incubation
# Experimental: HCT116 cells derived from human colorectal cancer were used, and a cancer cell proliferation inhibition effect of a biguanide derivative was confirmed by measuring a concentration value (cell growth inhibition concentration, GIC50) at which cell growth was inhibited 50% using a 3-(4,5-dimethylthiazol-2-yl)-2,5-diphenyltetrazolium bromide (MTT) reagent.
# First, the HCT116 cells were put on a 96-well plate and incubated for 24 hours to each have cell count of approximately 5000 in a DMEM medium containing 10% fetal bovine serum. Subsequently, to obtain the GIC50 value of each compound, 100 μM (or 200 μM), 25 μM, 6.25 μM, 1.56 μM or 0.39 μM of the compound was treated to each culture medium and then incubated for 48 hours. To confirm living cells after treatment with the compound, MTT was added to each culture medium and further incubated for 3 hours. Generated formazane crystal was dissolved using dimethyl sulfoxide (DMSO), and absorbance of the solution was measured at 560 nm. After the 48-hour incubation, a ratio of […] synthesized in the examples was indicated as cell viability (%) according to each administered concentration. A cell viability curve was plotted using the cell viability (%) and the calculated concentration value (GIC50) of the compound, at which 50% of the growth was inhibited, to confirm an effect on the inhibition of cancer cell proliferation.
# AMPK = AMPK activation (AMPKα immunoassay kit, phospho-Thr172) in MCF7 cells; format: cell-based, human; design: AMPK Activation 50 uM (degree of phosphorylated AMPKα Thr172): unit not given here; conditions: 24 h; for AMPK Activation Fold: 50 uM compound vs 0 (no compound); for AMPK Activation 50 uM (degree of phosphorylated AMPKα Thr172): 50 uM compound
# Experimental: The MCF7 cells were put on a 6-well plate and incubated in a DMEM medium containing 10% fetal bovine serum in an incubator to which 5% CO2 was supplied to have a cell count of approximately 5×10^5. 50 μM of the derivatives synthesized in the examples were treated to the each culture medium, and the cells were incubated for 24 hours. Subsequently, the cells were lysed by a method presented in the operation manual of the AMPKα immunoassay kit, and 20 μg of cell lysates were yielded through protein assay.
IC50 (HCT116 cells),melting point,Compound,AMPK Activation Fold (AMPK),AMPK Activation 50 uM (degree of phosphorylated AMPKα Thr172) (AMPK)
> 100 µM,131 to 133 °C,"CCCCN/C(=N\CCc1cccs1)NC(=N)N.Cl [Example 24, N4-(thiophene-2-yl)ethyl-N5-butyl biguanide hydrochloride]",4.4,29.9
> 100 µM,265 to 266 °C,"Cl.N=C(N)N/C(=N/Cc1cccnc1)NC1CCCCC1 [Example 26, N4-(pyridine-3-yl)methyl-N5-cyclohexyl biguanide hydrochloride]",2.3,15.4
> 100 µM,183 to 184 °C,"Cl.N=C(N)N/C(=N/CCc1ccccc1)NC1CCCCC1 [Example 27, N4-(phenethyl)-N5-cyclohexyl biguanide hydrochloride]",2.7,18.7
> 100 µM,189 to 190 °C,"Cl.N=C(N)N/C(=N/Cc1cccnc1)Nc1ccccc1 [Example 28, N4-(pyridine-3-yl)methyl-N5-phenyl biguanide hydrochloride]",1.0,6.7
> 200 µM,166 to 167 °C,"Cl.N=C(N)N/C(=N/C1CCCC1)NCc1ccccc1 [Example 30, N4-cyclopentyl-N5-benzyl biguanide hydrochloride]",1.4,7.3
> 100 µM,116 to 117 °C,"Cl.N=C(N)N/C(=N/Cc1ccco1)NCc1ccccc1 [Example 32, N4-(furan-2-yl)methyl-N5-benzyl biguanide hydrochloride]",2.5,16.9
18.7 µM,251 to 252 °C,"Cl.N=C(N)N/C(=N/C12CC3CC(CC(C3)C1)C2)NCCc1ccccc1 [Example 34, N4-adamantyl-N5-(phenethyl)biguanide hydrochloride]",8.3,20.8
12.4 µM,150 to 151 °C,"Cl.N=C(N)N/C(=N/c1ccc(C(F)(F)F)cc1)NCCc1ccccc1 [Example 37, N4-(4-trifluoromethyl)phenyl-N5-(phenethyl)biguanide hydrochloride]",4.1,10.2
> 100 µM,168 to 169 °C,"Cl.N=C(N)N/C(=N/Cc1ccc2c(c1)OCO2)NCCc1ccccc1 [Example 39, N4-(benzo[1,3]dioxol-5-yl)methyl-N5-(phenethyl)biguanide hydrochloride]",0.9,6.4
85.6 µM,165 to 166 °C,"Cl.N=C(N)N/C(=N/Cc1ccccc1)NCCc1ccccc1 [Example 40, N4-benzyl-N5-(phenethyl)biguanide hydrochloride]",3.9,20.5
42.8 µM,125 to 127 °C,"Cl.N=C(N)N/C(=N/Cc1ccc(F)cc1)NCCc1ccccc1 [Example 41, N4-(4-fluoro)benzyl-N5-(phenethyl)biguanide hydrochloride]",4.0,10.1
76 µM,183 to 185 °C,"Cl.N=C(N)N/C(=N/CCc1cccs1)NCCc1ccccc1 [Example 42, N4-(thiophene-2-yl)ethyl-N5-(phenethyl)biguanide hydrochloride]",5.9,31.5
70.2 µM,183 to 184 °C,"Cl.N=C(N)N/C(=N/CCc1ccccc1)NCCc1ccccc1 [Example 43, N4-N5-di(phenethyl)biguanide hydrochloride]",4.5,23.8
> 100 µM,120 to 122 °C,"C/N=C(/NC(=N)N)N(C)Cc1ccccc1.Cl [Example 44, N4-methyl-N5,N5-(benzyl)(methyl)biguanide hydrochloride]",1.9,12.8
> 100 µM,170 to 171 °C,"CCCC/N=C(/NC(=N)N)N(Cc1ccccc1)C(C)C.Cl [Example 45, N4-butyl-N5,N5-(benzyl)(isopropyl)biguanide hydrochloride]",1.0,7.1
> 100 µM,144 to 145 °C,"CN(CCc1ccccc1)/C(=N\CCc1ccccc1)NC(=N)N.Cl [Example 47, N4-(phenethyl)-N5,N5-(phenethyl)(methyl)biguanide hydrochloride]",1.1,7.2
> 100 µM,228 to 229 °C,"CCCCN(CC)/C(=N\CCc1ccccc1)NC(=N)N.Cl [Example 48, N4-(phenethyl)-N5,N5-(butyl)(ethyl)biguanide hydrochloride]",1.0,6.6
> 100 µM,138 to 140 °C,"CCCCCCN(CCCCCC)/C(=N\CCc1ccccc1)NC(=N)N.Cl [Example 49, N4-(phenethyl)-N5,N5-dihexyl biguanide hydrochloride]",5.2,35.2
59.1 µM,184 to 185 °C,"CCCCN(Cc1ccccc1)/C(=N\CCc1ccccc1)NC(=N)N.Cl [Example 50, N4-(phenethyl)-N5,N5-(butyl)(benzyl)biguanide hydrochloride]",4.0,21.4
